Measured values published in patent publication US9359361B2, “Immune system modulators” (JANUS BIOTHERAPEUTICS, INC., priority 2011, dated 2016).

Target: human TLR9 (hTLR9) (Homo sapiens (Human), UniProt Q9NR96)
Test: TLR9 antagonist assay in HEK-Blue-hTLR9 cells (NF-kB/AP-1 SEAP reporter)
Format: cell-based
Conditions: hTLR9 agonist (such as ODN 2006, 1 uM), SEAP readout at 620 nm, read-out: hTLR9 antagonism IC50
From the text: TLR9 Antagonist Assay HEK-Blue™-hTLR9 cells were obtained from InvivoGen Inc. and used to determine test compound antagonism of human TLR9 (hTLR9) driven responses. HEK-Blue™-hTLR9 cells are designed for studying the stimulation of human TLR9 by monitoring the activation of NF-kB. As described by the manufacturer, “HEK-Blue™-hTLR9 cells were obtained by co-transfection of the hTLR9 gene and an optimized secreted embryonic alkaline phosphatase (SEAP) reporter gene into HEK293 cells. The SEAP reporter gene is placed under the control of the IFN-b minimal promoter fused to five NF-kB and AP-1 binding sites. Stimulation with a TLR9 ligand activates NF-kB and AP-1 which induces the production of SEAP. Levels of SEAP can be easily determined with QUANTI-Blue™ a detection medium that turns purple/blue in the presence of alkaline phosphatase”. TLR9 Antagonism Assay […] Day 2 […] Day 3 […] Calculation of IC50 The concentration dependent inhibition of hTLR9 dependent SEAP production was expressed as the concentration of compound which produced half the maximal level of SEAP induced by the hTLR agonist alone.

human TLR9 (hTLR9), sequence (Q9NR96 26-1032): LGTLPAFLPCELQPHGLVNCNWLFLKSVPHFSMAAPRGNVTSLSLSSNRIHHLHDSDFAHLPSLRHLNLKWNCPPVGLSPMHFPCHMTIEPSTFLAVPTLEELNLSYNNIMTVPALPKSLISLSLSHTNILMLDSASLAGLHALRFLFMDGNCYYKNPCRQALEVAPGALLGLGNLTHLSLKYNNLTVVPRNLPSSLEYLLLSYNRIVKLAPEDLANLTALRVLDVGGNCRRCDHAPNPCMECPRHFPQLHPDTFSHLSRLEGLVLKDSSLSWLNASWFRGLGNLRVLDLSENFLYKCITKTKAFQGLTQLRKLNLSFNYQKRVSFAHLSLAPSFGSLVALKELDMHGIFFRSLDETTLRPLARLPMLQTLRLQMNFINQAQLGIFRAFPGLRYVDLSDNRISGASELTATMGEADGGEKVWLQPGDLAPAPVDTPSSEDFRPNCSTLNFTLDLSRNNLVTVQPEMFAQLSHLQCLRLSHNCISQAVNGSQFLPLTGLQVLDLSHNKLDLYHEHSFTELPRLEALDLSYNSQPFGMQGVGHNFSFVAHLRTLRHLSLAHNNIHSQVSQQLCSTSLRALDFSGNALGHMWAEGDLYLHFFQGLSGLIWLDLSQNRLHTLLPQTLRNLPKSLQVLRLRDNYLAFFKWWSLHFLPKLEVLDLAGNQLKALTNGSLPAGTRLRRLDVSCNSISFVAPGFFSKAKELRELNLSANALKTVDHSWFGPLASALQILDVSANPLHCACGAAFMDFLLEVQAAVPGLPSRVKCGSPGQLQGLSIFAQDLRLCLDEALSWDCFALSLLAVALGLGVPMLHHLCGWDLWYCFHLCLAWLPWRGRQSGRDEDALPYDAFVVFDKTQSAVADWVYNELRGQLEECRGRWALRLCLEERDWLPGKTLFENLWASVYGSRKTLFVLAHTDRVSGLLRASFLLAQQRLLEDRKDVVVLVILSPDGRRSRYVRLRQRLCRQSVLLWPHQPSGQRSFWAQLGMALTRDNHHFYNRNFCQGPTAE

Compound: c1ccc(-c2nc(NCCN3CCOCC3)c3nc(NCCN4CCOCC4)c(N4CCCC4)nc3n2)cc1 [Example 66]
- IC50: 181 nM
